Format in all cases: functional
The test system of test [1] is Staphylococcus aureus. The experiment in a line: Antibacterial activity against Staphylococcus aureus CIP 4.83 by broth microdilution method.
In test [2] the test system is Escherichia coli. The experiment in a line: Antibacterial activity against Escherichia coli CIP 54127 by broth microdilution method.
The subject of test [3] is Candida albicans. The experiment in a line: Antifungal activity against Candida albicans CIP 1180-79 by broth microdilution method.
In test [4] the test system is Enterococcus faecalis. Kind of test: Antibacterial activity against Enterococcus faecalis CIP 103015 by broth microdilution method.
The test system of test [5] is Saccharomyces cerevisiae. Kind of test: Antifungal activity against Saccharomyces cerevisiae CIP 28383 by broth microdilution method.

In brackets after ≈: the same amount, converted by molar mass. Where only a bound is given, the exact number is not on record here.

In the case of `CC(C)CCC[C@@H](C)[C@H]1CC[C@H]2[C@@H]3CC[C@H]4C[C@@H](NCCCCCCN)CC[C@]4(C)[C@H]3CC[C@]12C`, the minimal inhibitory concentration (MIC) in test [1], in test [2], in test [3], in test [4] and in test [5] was over 50 µg/mL each time.

For `CC(C)CCC[C@@H](C)[C@H]1CC[C@H]2[C@@H]3CCC4=C[C@@H](NCCCCCCN)CC[C@]4(C)[C@H]3CC[C@]12C`, the minimal inhibitory concentration (MIC) in test [1], in test [2], in test [3], in test [4] and in test [5] was over 50 µg/mL each time.

As to `CC(C)CCC[C@@H](C)[C@H]1CC[C@H]2[C@@H]3CC[C@H]4C[C@@H](NCCN)CC[C@]4(C)[C@H]3CC[C@]12C`, the MIC in test [1] was 12.5 µg/mL (≈ 29 µM); in test [2], over 50 µg/mL; in test [3] it was over 50 µg/mL; in test [4], over 50 µg/mL; in test [5], 50 µg/mL (≈ 116 µM).

`CC(C)CCC[C@@H](C)[C@H]1CC[C@H]2[C@@H]3CCC4=C[C@@H](NCCCCCCCCN)CC[C@]4(C)[C@H]3CC[C@]12C`: the MIC in test [1], in test [2], in test [3], in test [4] and in test [5] was over 50 µg/mL throughout.

For `CC(C)CCC[C@@H](C)[C@H]1CC[C@H]2[C@@H]3CC=C4C[C@@H](NCCCCN)CC[C@]4(C)[C@H]3CC[C@]12C`, the MIC in test [1] was 1.56 µg/mL (≈ 3.42 µM); in test [2] it was 6.25 µg/mL (≈ 13.7 µM); in test [3], over 50 µg/mL; in test [4], 6.25 µg/mL (≈ 13.7 µM); in test [5], over 50 µg/mL.

Regarding `CN[C@H]1CC[C@@]2(C)C(=CC[C@H]3[C@@H]4CC[C@H]([C@H](C)CCCC(C)C)[C@@]4(C)CC[C@@H]32)C1`, the MIC in test [1] was 6.25 µg/mL (≈ 15.6 µM); in test [2], over 50 µg/mL; in test [3], over 50 µg/mL; in test [4], 6.25 µg/mL (≈ 15.6 µM); in test [5], 3.12 µg/mL (≈ 7.82 µM).

Regarding `CC(C)CCC[C@@H](C)[C@H]1CC[C@H]2[C@@H]3CCC4=C[C@@H](NCCCCCN)CC[C@]4(C)[C@H]3CC[C@]12C`, the MIC in test [1] was 6.25 µg/mL (≈ 13.3 µM); in test [2] it was over 50 µg/mL; in test [3], over 50 µg/mL; in test [4], 6.25 µg/mL (≈ 13.3 µM); in test [5], over 50 µg/mL.

Consider `CC(C)CCC[C@@H](C)[C@H]1CC[C@H]2[C@@H]3CCC4=C[C@@H](NCCCNCCCCNCCCN)CC[C@]4(C)[C@H]3CC[C@]12C`, for which the minimal inhibitory concentration (MIC) in test [1] was 6.25 µg/mL (≈ 10.9 µM); in test [2] it was 50 µg/mL (≈ 87.6 µM); in test [3], 50 µg/mL (≈ 87.6 µM); in test [4] it was over 50 µg/mL; in test [5], over 50 µg/mL.

For `CC(C)CCC[C@@H](C)[C@H]1CC[C@H]2[C@@H]3CC[C@H]4C[C@@H](NCCCCCN)CC[C@]4(C)[C@H]3CC[C@]12C`, the MIC was 6.25 µg/mL (≈ 13.2 µM) in test [1]; over 50 µg/mL in test [2]; 50 µg/mL (≈ 106 µM) in test [3]; 50 µg/mL (≈ 106 µM) in test [4]; 25 µg/mL (≈ 52.9 µM) in test [5].

Take `CC(C)CCCC(C)C1CCC2C3CCC4CC(N)CCC4(C)C3CCC12C` (stereo not drawn): the MIC in test [1] is over 50 µg/mL; in test [2] it was over 50 µg/mL; in test [3], 50 µg/mL (≈ 129 µM); in test [4] it was 50 µg/mL (≈ 129 µM); in test [5] it was over 50 µg/mL.

For `CC(C)CCC[C@@H](C)[C@H]1CC[C@H]2[C@@H]3CCC4=C[C@@H](NCCCCCCCCCCCCN)CC[C@]4(C)[C@H]3CC[C@]12C`, the MIC in test [1], in test [2], in test [3], in test [4] and in test [5] was over 50 µg/mL throughout.

As for `CC(C)CCCC(C)C1CCC2C3CCC4CC(NCCCCCCCN)CCC4(C)C3CCC12C` (stereo not drawn), the minimal inhibitory concentration (MIC) in test [1], in test [2], in test [3], in test [4] and in test [5] was over 50 µg/mL throughout.

Consider `CC(C)CCC[C@@H](C)[C@H]1CC[C@H]2[C@@H]3CCC4=C[C@@H](NCCCCCCCCCCN)CC[C@]4(C)[C@H]3CC[C@]12C`, for which the minimal inhibitory concentration (MIC) in test [1], in test [2], in test [3], in test [4] and in test [5] was over 50 µg/mL each time.

Consider `CC(C)[C@@H](CC[C@@H](C)[C@H]1CC[C@H]2[C@@H]3[C@H](O)C[C@H]4C[C@@H](NCCCNCCCCNCCCN)CC[C@]4(C)[C@H]3CC[C@]12C)OS(=O)(=O)O.Cl.Cl.Cl.Cl` [TRODUSQUEMINE HYDROCHLORIDE], for which the minimum inhibitory concentration (MIC) turned out to be 1 µg/mL in test [1], 4 µg/mL in test [2] and 4 µg/mL in test [3].

Turning to `CC(C)CCC[C@@H](C)[C@H]1CC[C@H]2[C@@H]3CCC4=C[C@@H](NCCN)CC[C@]4(C)[C@H]3CC[C@]12C`, the minimum inhibitory concentration (MIC) is 12.5 µg/mL (≈ 29.2 µM) in test [1]; over 50 µg/mL in test [2]; over 50 µg/mL in test [3]; over 50 µg/mL in test [4]; over 50 µg/mL in test [5].

As to `CC(C)CCC[C@@H](C)[C@H]1CC[C@H]2[C@@H]3CCC4=C[C@@H](NCCCCCCCN)CC[C@]4(C)[C@H]3CC[C@]12C`, the MIC in test [1], in test [2], in test [3], in test [4] and in test [5] was over 50 µg/mL each time.

Take `CC(C)CCC[C@@H](C)[C@H]1CC[C@H]2[C@@H]3CC[C@H]4C[C@@H](NCCCCN)CC[C@]4(C)[C@H]3CC[C@]12C`: the minimum inhibitory concentration (MIC) was 12.5 µg/mL (≈ 27.2 µM) in test [1]; over 50 µg/mL in test [2]; 25 µg/mL (≈ 54.5 µM) in test [3]; over 50 µg/mL in test [4]; 50 µg/mL (≈ 109 µM) in test [5].

With `CC(C)CCC[C@@H](C)[C@H]1CC[C@H]2[C@@H]3CCC4=C[C@@H](NCCCN)CC[C@]4(C)[C@H]3CC[C@]12C`, the MIC in test [1] was 12.5 µg/mL (≈ 28.2 µM); in test [2], over 50 µg/mL; in test [3], 25 µg/mL (≈ 56.5 µM); in test [4], over 50 µg/mL; in test [5], over 50 µg/mL.

With `CC(C)CCCC(C)C1CCC2C3CCC4CC(NCCCNCCCCNCCCN)CCC4(C)C3CCC12C` (stereo not drawn), the minimum inhibitory concentration (MIC) in test [1] was 3.12 µg/mL (≈ 5.45 µM); in test [2] it was over 50 µg/mL; in test [3] it was 50 µg/mL (≈ 87.3 µM); in test [4] it was 12.5 µg/mL (≈ 21.8 µM); in test [5], 6.25 µg/mL (≈ 10.9 µM).

Consider `CC(C)CCC[C@@H](C)[C@H]1CC[C@H]2[C@@H]3CC=C4C[C@@H](NCCCNCCCCNCCCN)CC[C@]4(C)[C@H]3CC[C@]12C`, for which the MIC in test [1] is 6.25 µg/mL (≈ 10.9 µM); in test [2] it was over 50 µg/mL; in test [3], over 50 µg/mL; in test [4], over 50 µg/mL; in test [5], over 50 µg/mL.

Turning to `CC(C)CCC[C@@H](C)[C@H]1CC[C@H]2[C@@H]3CCC4=C[C@@H](NCCCCN)CC[C@]4(C)[C@H]3CC[C@]12C`, the MIC is 6.25 µg/mL (≈ 13.7 µM) in test [1]; 25 µg/mL (≈ 54.7 µM) in test [2]; 6.25 µg/mL (≈ 13.7 µM) in test [3]; 6.25 µg/mL (≈ 13.7 µM) in test [4]; 12.5 µg/mL (≈ 27.4 µM) in test [5].

`CC(C)CCC[C@@H](C)[C@H]1CC[C@H]2[C@@H]3CC[C@H]4C[C@@H](NCCCN)CC[C@]4(C)[C@H]3CC[C@]12C`: the MIC in test [1], in test [2], in test [3], in test [4] and in test [5] was over 50 µg/mL each time.

Regarding `CC(C)CCC[C@@H](C)[C@H]1CC[C@H]2[C@@H]3CC=C4C[C@@H](NCCCN)CC[C@]4(C)[C@H]3CC[C@]12C`, the MIC in test [1] was 6.25 µg/mL (≈ 14.1 µM); in test [2] it was 6.25 µg/mL (≈ 14.1 µM); in test [3], over 50 µg/mL; in test [4], 6.25 µg/mL (≈ 14.1 µM); in test [5], over 50 µg/mL.

`CNC1CCC2(C)C(CCC3C2CCC2(C)C(C(C)CCCC(C)C)CCC32)C1` (stereo not drawn): the MIC is 6.25 µg/mL (≈ 15.6 µM) in test [1]; over 50 µg/mL in test [2]; 12.5 µg/mL (≈ 31.1 µM) in test [3]; 6.25 µg/mL (≈ 15.6 µM) in test [4]; 12.5 µg/mL (≈ 31.1 µM) in test [5].

As for `CC(C)CCC[C@@H](C)[C@H]1CC[C@H]2[C@@H]3CCC4=C[C@@H](NCCCCCCCCCN)CC[C@]4(C)[C@H]3CC[C@]12C`, the MIC in test [1], in test [2], in test [3], in test [4] and in test [5] was over 50 µg/mL each time.

Take `CC(C)CCC[C@@H](C)[C@H]1CC[C@H]2[C@@H]3CC=C4C[C@@H](NCCN)CC[C@]4(C)[C@H]3CC[C@]12C`: the MIC is 12.5 µg/mL (≈ 29.2 µM) in test [1]; 12.5 µg/mL (≈ 29.2 µM) in test [2]; over 50 µg/mL in test [3]; 25 µg/mL (≈ 58.3 µM) in test [4]; over 50 µg/mL in test [5].

With `CN[C@@H]1C=C2CC[C@H]3[C@@H]4CC[C@H]([C@H](C)CCCC(C)C)[C@@]4(C)CC[C@@H]3[C@@]2(C)CC1`, the MIC in test [1] was 1.56 µg/mL (≈ 3.9 µM); in test [2], over 50 µg/mL; in test [3], 12.5 µg/mL (≈ 31.3 µM); in test [4], 25 µg/mL (≈ 62.5 µM); in test [5], 12.5 µg/mL (≈ 31.3 µM).
